Article PMC10485906, “Development of a Dihydroquinoline–Pyrazoline GluN2C/2D-Selective Negative Allosteric Modulator of the N-Methyl-D-aspartate Receptor” (ACS Chemical Neuroscience, 2023)
Values joined by “and” are separate entries in the source; they are usually repeats but may differ in a detail not shown here. Identical values can stand only once. Marks after values point to notes of the source that are not given here.

What was measured:
[1] = target: CYP3A4 (Homo sapiens, UniProt P08684); assay: biochemical
Sequence of CYP3A4 (P08684 whole entry): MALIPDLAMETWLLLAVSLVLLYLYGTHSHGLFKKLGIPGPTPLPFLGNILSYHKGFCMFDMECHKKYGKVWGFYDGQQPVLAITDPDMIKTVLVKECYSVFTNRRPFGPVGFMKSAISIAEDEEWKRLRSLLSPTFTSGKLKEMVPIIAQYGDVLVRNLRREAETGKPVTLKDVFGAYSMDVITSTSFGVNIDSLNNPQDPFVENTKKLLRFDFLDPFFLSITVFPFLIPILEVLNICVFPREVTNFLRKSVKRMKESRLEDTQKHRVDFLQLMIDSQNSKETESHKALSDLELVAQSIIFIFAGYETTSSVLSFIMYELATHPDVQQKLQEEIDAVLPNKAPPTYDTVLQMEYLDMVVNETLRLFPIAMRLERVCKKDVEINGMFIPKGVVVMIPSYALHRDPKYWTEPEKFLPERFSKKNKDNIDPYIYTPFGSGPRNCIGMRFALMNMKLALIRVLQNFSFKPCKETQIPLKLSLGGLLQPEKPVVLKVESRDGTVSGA

[2] = target: GluN1/GluN2D (Rattus norvegicus, UniProt P35439+Q62645); assay: Two-electrode voltage-clamp recordings, Xenopus laevis oocytes, GluN1/GluN2D; type: cell-based; set-up: GluN2B (NM_012574.1), GluN2C (NM_012575.3), and GluN2D (NM_022797.2) were provided by; expressed in transfected cells; host or cells: Xenopus laevis oocytes (cRNA injection); details: 100 μM glutamate, 30 μM glycine; for IC50: read-out: IC50 GluN2D [95% CI]; for remaining activity at 30 µM: 30 μM test compound, mean ± SEM, read-out: I 30 μM / I control GluN2D
Sequence of GluN1/GluN2D (Rattus norvegicus, UniProt P35439+Q62645) (Q62645 28-1323, other chains not shown): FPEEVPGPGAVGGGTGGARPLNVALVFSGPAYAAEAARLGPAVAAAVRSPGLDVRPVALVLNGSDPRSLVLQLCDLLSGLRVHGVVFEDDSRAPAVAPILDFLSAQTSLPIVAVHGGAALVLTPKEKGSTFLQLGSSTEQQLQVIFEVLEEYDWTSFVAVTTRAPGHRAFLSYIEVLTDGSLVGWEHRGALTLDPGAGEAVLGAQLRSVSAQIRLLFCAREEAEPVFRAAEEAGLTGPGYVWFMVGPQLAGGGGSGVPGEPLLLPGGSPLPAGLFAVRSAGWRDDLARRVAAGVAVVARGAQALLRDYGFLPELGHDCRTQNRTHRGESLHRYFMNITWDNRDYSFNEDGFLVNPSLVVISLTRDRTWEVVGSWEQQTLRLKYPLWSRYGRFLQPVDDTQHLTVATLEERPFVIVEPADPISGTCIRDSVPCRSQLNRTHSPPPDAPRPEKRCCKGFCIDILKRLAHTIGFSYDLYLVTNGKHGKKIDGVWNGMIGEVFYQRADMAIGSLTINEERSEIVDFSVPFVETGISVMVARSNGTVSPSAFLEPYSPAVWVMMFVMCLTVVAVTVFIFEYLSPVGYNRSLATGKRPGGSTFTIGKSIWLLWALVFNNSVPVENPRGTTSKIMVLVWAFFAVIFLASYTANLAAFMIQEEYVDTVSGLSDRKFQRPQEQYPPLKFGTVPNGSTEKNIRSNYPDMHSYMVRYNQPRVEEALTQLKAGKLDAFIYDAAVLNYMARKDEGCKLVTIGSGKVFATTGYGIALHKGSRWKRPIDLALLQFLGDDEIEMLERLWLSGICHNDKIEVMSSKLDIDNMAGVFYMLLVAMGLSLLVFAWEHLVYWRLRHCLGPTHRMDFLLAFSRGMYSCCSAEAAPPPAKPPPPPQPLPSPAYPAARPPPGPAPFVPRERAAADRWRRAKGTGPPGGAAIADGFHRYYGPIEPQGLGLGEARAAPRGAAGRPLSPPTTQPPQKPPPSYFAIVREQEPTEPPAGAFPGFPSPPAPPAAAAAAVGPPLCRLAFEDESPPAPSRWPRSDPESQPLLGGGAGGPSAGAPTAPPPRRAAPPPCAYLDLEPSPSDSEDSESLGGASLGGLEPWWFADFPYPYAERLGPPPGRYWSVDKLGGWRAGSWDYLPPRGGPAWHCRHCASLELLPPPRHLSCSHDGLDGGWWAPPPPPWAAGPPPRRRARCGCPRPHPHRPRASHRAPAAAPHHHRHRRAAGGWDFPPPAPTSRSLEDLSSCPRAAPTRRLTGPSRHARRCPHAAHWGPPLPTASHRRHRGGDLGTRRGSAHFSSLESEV
Procedure: (§1) All target compounds were evaluated for NMDAR antagonism using two-electrode voltage-clamp recordings from Xenopus laevis oocytes coexpressing recombinant GluN1 and GluN2A-D subunits (Table 1).[32],[42],[33] All analogues were assessed as either a racemic (2b, 2e–2r) or diastereomeric (2d) mixture to simplify purification and streamline in vitro analysis. […] Moreover, as illustrated by the significant loss of NMDAR activity observed with nitrile 2e, the DQP allosteric site necessitated an H-bond donor/acceptor relationship at the carboxylate position. […] The loss of NMDAR activity observed with the trifluoro analogue 2j (Table S1) reinforced the necessity for an H-bond donor/acceptor relationship to maintain allosteric binding and established that fluorine substitution alone is ineffective. […] A single methyl substitution of the amide in compound 2q improved selectivity against GluN2A and had similar potency as 2a, whereas dual methyl substitution reduced potency (2r). We expect that this is likely due to the ability of the […] of the amide to accept hydrogen bonds while the amide can readily donate a proton.
(§2) Unfertilized Xenopus laevis oocytes were obtained from Ecocyte (Austin, TX), or ovaries were purchased from Xenopus 1 (Dexter, MI) and oocytes prepared as previously described.[42],[47] Two-electrode voltage-clamp recordings were performed on oocytes expressing recombinant rat GluN1/GluN2A, GluN1/GluN2B, GluN1/GluN2C, or GluN1/GluN2D. cDNAs for rat GluN1-1a (referred to as GluN1; NCBI Reference Sequence NM_017010.2), GluN2A (NM_012573.4), GluN2B (NM_012574.1), GluN2C (NM_012575.3), and GluN2D (NM_022797.2) were provided by Dr. S. Heinemann from the Salk Institute, Dr. S. Nakanishi from Kyoto University, and Dr. P. Seeburg from the University of Heidelberg. Oocyte isolation, cRNA synthesis, and cRNA injections were performed as previously described.[32],[33],[47] Briefly, Xenopus laevis oocytes were injected with 5–10 ng of cRNA in RNase-free water with the GluN1:GluN2 ratio ranging from 1:1 to 1:5. Oocytes were incubated at 15–19 °C in Barth’s solution consisting of (in mM) 88 NaCl, 1 KCl, 2.4 NaHCO3, 10 HEPES, 0.82 MgSO4, 0.33 Ca(NO3)2, and 0.41 CaCl2 supplemented with 100 μg/mL gentamycin, 40 μg/mL streptomycin, and 50 μg/mL penicillin. Recordings were performed 2–4 days after injection with extracellular recording solution containing (in mM) 90 NaCl, 1 KCl, 10 HEPES, 0.5 BaCl2, and 0.01 EDTA at pH 7.4 adjusted with NaOH. To prevent a gradual increase in current response over the course of the experiment, some oocytes expressing GluN1/GluN2A were injected with 20–50 nL of 2–50 mM K-BAPTA. Concentration–response curves for test compounds were generated by applying a maximally effective concentration of glutamate (100 μM) and glycine (30 μM), followed by glutamate and glycine with variable concentrations of test compounds up to 30 μM. The test compounds were prepared as 20 mM stock solutions in DMSO and diluted to the final concentration in recording solution. The DMSO content was 0.05–0.5% (v/v). […] Methods for off-target analysis are given in the Supporting Information.
(§3) Confidence intervals were determined for the log(IC50). The time course of relaxation during inhibitor application or deactivation following rapid removal of NMDA or glutamate was fitted by the equation [drawing 5] 2

[3] = target: GluN1/GluN2D (Rattus norvegicus, UniProt Q62645); assay: as above; type: cell-based; set-up: GluN2B (NM_012574.1), GluN2C (NM_012575.3), and GluN2D (NM_022797.2) were provided by; expressed in transfected cells; host or cells: Xenopus laevis oocytes (cRNA injection); details: for Selectivity 2A IC50 / 2D IC50: GluN2D over GluN2A; for Selectivity 2B IC50 / 2D IC50: GluN2D over GluN2B; for I3 μM/Icontrol GluN2D: tested at 3 μM; for I3 μM/Icontrol GluN2D / I / I control GluN2D: 100 μM glutamate, 30 μM glycine; for I / I control GluN2D: tested at 10 μM (footnote b)
Sequence of GluN1/GluN2D (Rattus norvegicus, UniProt Q62645) (Q62645 28-1323, other chains not shown): as above
Procedure: as §1, §2, §3

[4] = target: GluN1/GluN2C (Rattus norvegicus, UniProt Q00961); assay: Two-electrode voltage-clamp recordings, Xenopus laevis oocytes, GluN1/GluN2C; type: cell-based; set-up: GluN2B (NM_012574.1), GluN2C (NM_012575.3), and GluN2D (NM_022797.2) were provided by; expressed in transfected cells; host or cells: Xenopus laevis oocytes (cRNA injection); details: for I3 μM/Icontrol GluN2C: tested at 3 μM; for I3 μM/Icontrol GluN2C / I / I control GluN2C: 100 μM glutamate, 30 μM glycine; for I / I control GluN2C: tested at 10 μM (footnote b)
Sequence of GluN1/GluN2C (Rattus norvegicus, UniProt Q00961) (Q00961 20-1237, other chains not shown): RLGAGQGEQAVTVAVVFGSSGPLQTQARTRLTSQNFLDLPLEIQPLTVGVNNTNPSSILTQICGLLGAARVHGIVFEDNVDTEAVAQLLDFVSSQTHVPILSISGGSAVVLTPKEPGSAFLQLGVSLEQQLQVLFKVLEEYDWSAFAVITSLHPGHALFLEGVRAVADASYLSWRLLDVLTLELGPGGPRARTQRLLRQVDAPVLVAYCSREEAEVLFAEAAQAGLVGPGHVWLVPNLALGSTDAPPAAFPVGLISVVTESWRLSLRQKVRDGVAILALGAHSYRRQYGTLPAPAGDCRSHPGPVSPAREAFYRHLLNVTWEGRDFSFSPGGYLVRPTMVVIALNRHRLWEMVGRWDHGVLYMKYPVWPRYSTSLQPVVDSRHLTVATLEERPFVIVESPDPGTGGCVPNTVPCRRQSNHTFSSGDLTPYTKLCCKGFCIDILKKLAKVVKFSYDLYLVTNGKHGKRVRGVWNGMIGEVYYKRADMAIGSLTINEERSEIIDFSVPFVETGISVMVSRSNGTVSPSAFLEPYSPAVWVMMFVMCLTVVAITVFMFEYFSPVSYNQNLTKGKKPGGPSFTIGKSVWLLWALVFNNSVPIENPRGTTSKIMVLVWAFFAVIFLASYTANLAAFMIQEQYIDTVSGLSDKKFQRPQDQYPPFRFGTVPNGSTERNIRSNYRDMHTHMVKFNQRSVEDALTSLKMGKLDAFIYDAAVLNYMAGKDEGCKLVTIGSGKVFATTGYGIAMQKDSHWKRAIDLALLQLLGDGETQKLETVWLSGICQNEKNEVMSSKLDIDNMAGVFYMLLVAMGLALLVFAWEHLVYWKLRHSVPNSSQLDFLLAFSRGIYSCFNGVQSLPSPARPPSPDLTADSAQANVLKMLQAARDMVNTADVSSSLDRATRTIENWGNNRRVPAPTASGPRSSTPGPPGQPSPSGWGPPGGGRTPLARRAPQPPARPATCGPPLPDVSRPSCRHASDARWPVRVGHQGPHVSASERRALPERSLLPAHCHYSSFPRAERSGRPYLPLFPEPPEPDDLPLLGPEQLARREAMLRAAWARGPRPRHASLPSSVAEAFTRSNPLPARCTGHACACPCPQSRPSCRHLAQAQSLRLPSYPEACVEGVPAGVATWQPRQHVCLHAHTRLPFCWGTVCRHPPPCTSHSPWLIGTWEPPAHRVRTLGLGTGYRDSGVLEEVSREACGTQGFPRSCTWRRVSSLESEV
Procedure: as §1, §2, §3

[5] = target: GluN1/GluN2C (Rattus norvegicus, UniProt P35439+Q00961); assay: as above; type: cell-based; set-up: GluN2B (NM_012574.1), GluN2C (NM_012575.3), and GluN2D (NM_022797.2) were provided by; expressed in transfected cells; host or cells: Xenopus laevis oocytes (cRNA injection); details: 100 μM glutamate, 30 μM glycine; for IC50: read-out: IC50 GluN2C [95% CI]; for remaining activity at 30 µM: 30 μM test compound, mean ± SEM, read-out: I 30 μM / I control GluN2C
Sequence of GluN1/GluN2C (Rattus norvegicus, UniProt P35439+Q00961) (Q00961 20-1237, other chains not shown): as above
Procedure: as §1, §2, §3

[6] = mean ± SEM, listed as racemic 2i
[7] = 1 µM compound, 100 µM glutamate, 30 µM glycine, mean ± SEM

| IC50 [1] [nM] | IC50 [2] [nM] | Selectivity 2A IC50 / 2D IC50 [3] [fold] | Selectivity 2B IC50 / 2D IC50 [3] [fold] | IC50 [5] [nM] | remaining activity at 30 µM [2] [%] | remaining activity at 30 µM [5] [%] | SMILES | other results |
| --- | --- | --- | --- | --- | --- | --- | --- | --- |
| 17000 ± 3400 |  |  |  |  |  |  | O=C(O)CCC(=O)N1N=C(c2c(-c3ccc(Cl)cc3)c3ccccc3[nH]c2=O)CC1c1ccc(Cl)cc1 (stereo not drawn) [2a] |  |
| > 20000 | 130 | 43 | 123 | 350 |  |  | O=C(O)CC(F)(F)C(=O)N1N=C(c2c(-c3ccc(Cl)cc3)c3ccccc3[nH]c2=O)CC1c1ccc(Cl)cc1 (stereo not drawn) [2i] | I3 μM/Icontrol GluN2D ([3]; mean ± SEM): 12 ± 1.8% and 12 ± 1.8 ^b (2,16) %; I3 μM/Icontrol GluN2D [3, 6]: 12 ± 1.8 (2, 16) %; I3 μM/Icontrol GluN2C ([4]; mean ± SEM): 13 ± 2.5% and 13 ± 2.5 ^b (2,12) %; I3 μM/Icontrol GluN2C [4, 6]: 13 ± 2.5 (2, 12) % |
| 2000 ± 400 | 240 | 24 | 13 | 380 |  |  | NC(=O)CC(F)(F)C(=O)N1N=C(c2c(-c3ccc(Cl)cc3)c3ccccc3[nH]c2=O)CC1c1ccc(Cl)cc1 (stereo not drawn) [2k] | I3 μM/Icontrol GluN2D ([3]; mean ± SEM): 16 ± 2.3 ^b (3,17) %; I3 μM/Icontrol GluN2C ([4]; mean ± SEM): 22 ± 5.2 ^b (3,16) % |
| 7800 ± 100 |  |  |  |  | 87 ± 0.8 | 93 ± 0.7 | CCOC(=O)CC(F)(F)C(=O)N1N=C(c2c(-c3ccc(Cl)cc3)c3ccccc3[nH]c2=O)CC1c1ccc(Cl)cc1 (stereo not drawn) [2l] |  |
| 6300 ± 1100 |  |  |  |  | 92 ± 3.1 | 90 ± 4.3 | CC(C)OC(=O)CC(F)(F)C(=O)N1N=C(c2c(-c3ccc(Cl)cc3)c3ccccc3[nH]c2=O)CC1c1ccc(Cl)cc1 (stereo not drawn) [2m] |  |
| 6700 ± 1200 |  |  |  |  | 92 ± 2.7 | 93 ± 4.2 | O=C(CC(F)(F)C(=O)N1N=C(c2c(-c3ccc(Cl)cc3)c3ccccc3[nH]c2=O)CC1c1ccc(Cl)cc1)OCC1CC1 (stereo not drawn) [2n] |  |
| 12000 ± 40 |  |  |  |  |  |  | CC(C)(C)COC(=O)CC(F)(F)C(=O)N1N=C(c2c(-c3ccc(Cl)cc3)c3ccccc3[nH]c2=O)CC1c1ccc(Cl)cc1 (stereo not drawn) [2o] | I / I control GluN2D ([3]; mean ± SEM): 82 ± 0.7%; I / I control GluN2C ([4]; mean ± SEM): 87 ± 0.8% |
| > 20000 |  |  |  |  | 96 ± 0.53 | 98 ± 0.95 | O=C(CC(F)(F)C(=O)N1N=C(c2c(-c3ccc(Cl)cc3)c3ccccc3[nH]c2=O)CC1c1ccc(Cl)cc1)OCc1ccccc1 (stereo not drawn) [2p] |  |
| 7700 ± 1700 | 410 | 90 | 49 | 670 |  |  | CNC(=O)CC(F)(F)C(=O)N1N=C(c2c(-c3ccc(Cl)cc3)c3ccccc3[nH]c2=O)CC1c1ccc(Cl)cc1 (stereo not drawn) [2q] | I / I control GluN2D ([3]; mean ± SEM): 12 ± 1.5 ^b (3, 18) %; I / I control GluN2C ([4]; mean ± SEM): 16 ± 1.6 ^b (3, 20) % |
| > 20000 | 1400 |  |  | 4100 |  |  | CN(C)C(=O)CC(F)(F)C(=O)N1N=C(c2c(-c3ccc(Cl)cc3)c3ccccc3[nH]c2=O)CC1c1ccc(Cl)cc1 (stereo not drawn) [2r] | I / I control GluN2D ([3]; mean ± SEM): 19 ± 1.6 ^b (3,14) %; I / I control GluN2C ([4]; mean ± SEM): 28 ± 2.2 ^b (4,20) % |
|  | 35 | 134 | 457 | 61 |  |  | O=C(O)CC(F)(F)C(=O)N1N=C(c2c(-c3ccc(Cl)cc3)c3ccccc3[nH]c2=O)C[C@H]1c1ccc(Cl)cc1 [(S)-(−)-2i] | % control GluN1/GluN2D [3, 7]: 4.3 ± 0.73%; fold more potent than (S)-2a ([3]; abstract): 5 fold; I3 μM/Icontrol GluN2D ([3]; mean ± SEM): 3.8 ± 0.60 (4, 25) %; % control GluN1/GluN2C [4, 7]: 16 ± 2.9%; selectivity for GluN2C-containing NMDARs compared to GluN2A- and GluN2B-containing receptors ([4]; abstract): > 100 fold; I3 μM/Icontrol GluN2C ([4]; mean ± SEM): 13 ± 2.6 (3, 16) % |
